Reference: US9676757B2, “Heterocyclic compounds as NaV channel inhibitors and uses thereof” (Merck Patent GmbH, priority 2014, dated 2017)
Structures can show the parent of a compound that is named as a salt. Where two headings read alike, the source gives them in different places.

Target: Nav1.6 (Homo sapiens, UniProt Q9UQD0)
Assay: Nav two-pulse protocol, IonWorks Quattro electrophysiology
Type: cell-based
Conditions: -120 mV to 0 mV, compound incubated 300 s
Protocol: Compound Plate Preparation
Supplied compounds were sent as Assay Ready Plates, with 2 μL per well of compound in DMSO at 300× the final assay concentrations as described above and in the project proposal. All assay plates are stored at in a −80° C. freezer.
On the day of the assay, 198 μL of external solution was added to the appropriate assay plate and mixed thoroughly. This provided a 1:100 dilution. A further 1:3 dilution occurred upon addition to the cells in the IonWorks, giving a 1:300 dilution in total.
On each assay plate, at least 8 wells were reserved for vehicle control (0.3% DMSO) and at least 8 wells for each positive control specific to the cell line tested. The positive controls were tested in an 8-point dose response with 3-fold dilutions to determine an IC50 value for each run. The positive control compounds are outlined below.
Ion Channel Positive Control & Concentrations
Nav1.6/1.2 Lidocaine: 8, 3-fold dilutions starting at 100 μM
Electrophysiological Recording Solutions
The solutions for recording currents were are follows:
Amphotericin B was used to obtain electrical access to the cell interior at a final concentration of 200 μg/ml in internal recording solution.
Experimental Protocols & Data Analysis
Nav currents were evoked by stepping from a holding potential of −120 mV to 0 mV for 2.5 s (pulse 1), followed by a 5 ms inter-pulse interval, and stepping from a holding potential of −120 mV to 0 mV for 20 ms (pulse 2). The voltage protocol was applied (Pre), compounds added, incubated for 300 seconds, and the voltage protocol was applied a final time (Post) on the IonWorks Quattro.
The parameters measured were the maximum inward current evoked on stepping to 0 mV from the 1st and 2nd pulse. All data were filtered for seal quality, seal drop, and current amplitude. The peak current amplitude (Peak) was calculated before (Pre) and after (Post) compound addition to the amount of block was assessed by dividing the Post-compound current amplitude by the Pre-compound current amplitude. These procedures were implemented for the 1st and 2nd pulse.

Chain of Nav1.6 (Q9UQD0 whole entry): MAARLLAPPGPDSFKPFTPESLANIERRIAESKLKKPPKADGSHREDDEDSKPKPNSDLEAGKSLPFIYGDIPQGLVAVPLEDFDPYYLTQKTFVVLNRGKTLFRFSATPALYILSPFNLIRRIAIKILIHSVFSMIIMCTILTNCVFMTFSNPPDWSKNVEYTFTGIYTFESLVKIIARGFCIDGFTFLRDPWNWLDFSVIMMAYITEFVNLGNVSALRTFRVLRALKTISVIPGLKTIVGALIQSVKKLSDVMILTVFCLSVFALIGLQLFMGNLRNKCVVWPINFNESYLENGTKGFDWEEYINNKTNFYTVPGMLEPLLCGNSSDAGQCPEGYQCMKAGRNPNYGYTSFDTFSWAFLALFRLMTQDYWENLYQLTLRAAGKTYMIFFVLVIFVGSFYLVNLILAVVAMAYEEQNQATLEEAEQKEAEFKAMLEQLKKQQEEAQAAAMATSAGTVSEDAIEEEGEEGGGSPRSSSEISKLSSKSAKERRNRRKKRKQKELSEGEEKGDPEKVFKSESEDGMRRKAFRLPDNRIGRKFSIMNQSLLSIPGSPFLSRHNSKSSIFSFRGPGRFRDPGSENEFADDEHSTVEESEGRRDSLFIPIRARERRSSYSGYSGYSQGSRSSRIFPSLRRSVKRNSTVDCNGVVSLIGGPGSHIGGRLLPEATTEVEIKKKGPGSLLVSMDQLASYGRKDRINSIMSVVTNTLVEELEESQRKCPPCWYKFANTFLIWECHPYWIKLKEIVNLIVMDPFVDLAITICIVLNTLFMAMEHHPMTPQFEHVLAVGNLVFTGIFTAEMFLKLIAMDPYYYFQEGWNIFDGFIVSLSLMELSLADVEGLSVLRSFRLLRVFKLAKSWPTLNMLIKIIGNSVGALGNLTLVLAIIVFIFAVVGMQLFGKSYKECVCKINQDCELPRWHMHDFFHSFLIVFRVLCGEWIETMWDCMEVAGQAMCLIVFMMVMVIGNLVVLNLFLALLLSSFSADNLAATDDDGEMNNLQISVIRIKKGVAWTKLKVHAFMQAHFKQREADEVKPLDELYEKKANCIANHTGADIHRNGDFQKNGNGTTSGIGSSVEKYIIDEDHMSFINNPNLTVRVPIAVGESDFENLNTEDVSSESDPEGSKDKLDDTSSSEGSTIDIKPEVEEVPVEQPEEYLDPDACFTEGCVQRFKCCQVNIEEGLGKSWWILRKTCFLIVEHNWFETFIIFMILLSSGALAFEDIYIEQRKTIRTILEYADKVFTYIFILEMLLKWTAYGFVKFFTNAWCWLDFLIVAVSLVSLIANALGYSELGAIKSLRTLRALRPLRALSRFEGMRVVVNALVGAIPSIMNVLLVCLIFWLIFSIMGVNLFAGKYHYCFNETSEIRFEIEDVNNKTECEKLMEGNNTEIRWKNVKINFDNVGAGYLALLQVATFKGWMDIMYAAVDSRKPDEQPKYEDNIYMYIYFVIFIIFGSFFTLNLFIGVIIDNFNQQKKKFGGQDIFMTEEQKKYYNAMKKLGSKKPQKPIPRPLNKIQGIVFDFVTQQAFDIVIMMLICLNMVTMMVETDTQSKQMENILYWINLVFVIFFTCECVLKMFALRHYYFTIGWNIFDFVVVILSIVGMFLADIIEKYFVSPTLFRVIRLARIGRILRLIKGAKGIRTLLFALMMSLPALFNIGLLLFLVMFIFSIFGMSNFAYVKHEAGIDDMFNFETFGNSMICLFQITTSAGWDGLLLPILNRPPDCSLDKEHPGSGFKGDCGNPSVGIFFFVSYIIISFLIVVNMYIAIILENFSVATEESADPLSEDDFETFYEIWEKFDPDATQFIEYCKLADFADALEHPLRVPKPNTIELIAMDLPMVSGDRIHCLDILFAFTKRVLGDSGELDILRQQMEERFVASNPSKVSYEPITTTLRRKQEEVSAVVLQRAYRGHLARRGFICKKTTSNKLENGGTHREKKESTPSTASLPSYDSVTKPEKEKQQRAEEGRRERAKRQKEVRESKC

Structure (SMILES)	IC50 (read-out: Nav1.6 Tonic)	IC50 (read-out: Nav1.6 inac)
O=C(NCc1ccccn1)C1CCN(Cc2cccc(Oc3ccc(F)c(F)c3)c2)C1 (stereo not shown) [Compound 3, 1-[3-(3,4-Difluoro-phenoxy)-benzyl]-pyrrolidine-3-carboxylic acid (pyridin-2-ylmethyl)-amide]	> 20 µM	1 to 5 µM
O=C(NCc1ccccn1)C1CN(Cc2cccc(Oc3ccccc3)c2)CCO1 (stereo not shown) [Compound 105, 4-(3-Phenoxy-benzyl)-morpholine-2-carboxylic acid (pyridin-2-ylmethyl)-amide]	> 20 µM	1 to 5 µM
CC1(C(=O)NCc2ccccn2)CCCN(Cc2cccc(Oc3ccccc3)c2)C1=O (stereo not shown) [Compound 110, 3-Methyl-2-oxo-1-(3-phenoxy-benzyl)-piperidine-3-carboxylic acid (pyridin-2-ylmethyl)-amide]	10 to 20 µM	< 1 µM
COc1ccccc1CNC(=O)C1CCN(Cc2cccc(Oc3ccccc3)c2)C1 (stereo not shown) [Compound 65, 1-(3-Phenoxy-benzyl)-pyrrolidine-3-carboxylic acid 2-methoxy-benzylamide]	> 20 µM	< 1 µM
Cc1ccc(CNC(=O)C2CCN(Cc3cccc(OCC(F)(F)F)c3)C2)nc1 (stereo not shown) [Compound 97, 1-[3-(2,2,2-Trifluoro-ethoxy)-benzyl]-pyrrolidine-3-carboxylic acid (5-methyl-pyridin-2-ylmethyl)-amide]	> 20 µM	> 5 µM
CN1CCN(C(=O)C2CCN(Cc3cccc(Oc4ccccc4)c3)C2)CC1=O (stereo not shown) [Compound 104, 1-Methyl-4-[1-(3-phenoxy-benzyl)-pyrrolidine-3-carbonyl]-piperazin-2-one]	> 20 µM	1 to 5 µM
CC(C)CSc1cccc(CN2CCC(C(=O)OCc3ccccn3)C2)c1 (stereo not shown) [Compound 46, 1-(3-Isobutylsulfanyl-benzyl)-pyrrolidine-3-carboxylic acid pyridin-2-ylmethyl ester]	> 20 µM	1 to 5 µM
O=C(NCc1ccccn1)C1CCN(Cc2ccc3c(c2)OC(F)(F)O3)C1 (stereo not shown) [Compound 31, 1-(2,2-Difluoro-benzo[1,3]dioxol-5-ylmethyl)-pyrrolidine-3-carboxylic acid (pyridin-2-ylmethyl)-amide]	> 20 µM	1 to 5 µM
O=C(NCc1cccc(F)c1)C1CCN(Cc2cccc(Oc3ccccc3)c2)C1 (stereo not shown) [Compound 74, 1-(3-Phenoxy-benzyl)-pyrrolidine-3-carboxylic acid 3-fluoro-benzylamide]	10 to 20 µM	1 to 5 µM
Cc1cncc(Oc2cccc(CN3CCC(C(=O)NCc4ccccn4)C3)c2)n1 (stereo not shown) [Compound 18, 1-[3-(6-Methyl-pyrazin-2-yloxy)-benzyl]-pyrrolidine-3-carboxylic acid (pyridin-2-ylmethyl)-amide]	> 20 µM	> 5 µM
O=C(NCc1cccc(C(F)(F)F)n1)C1CCN(Cc2cccc(OCC(F)(F)F)c2)C1 (stereo not shown) [Compound 92, 1-[3-(2,2,2-Trifluoro-ethoxy)-benzyl]-pyrrolidine-3-carboxylic acid (6-trifluoromethyl-pyridin-2-ylmethyl)-amide]	> 20 µM	1 to 5 µM
O=C(NCc1cccc(C(F)(F)F)c1)C1CCN(Cc2cccc(Oc3ccccc3)c2)C1 (stereo not shown) [Compound 70, 1-(3-Phenoxy-benzyl)-pyrrolidine-3-carboxylic acid 3-trifluoromethyl-benzylamide]	10 to 20 µM	1 to 5 µM
O=C(NCc1ccccn1)C1CCN(Cc2cccc(Oc3ccc(F)cc3F)c2)C1 (stereo not shown) [Compound 8, 1-[3-(2,4-Difluoro-phenoxy)-benzyl]-pyrrolidine-3-carboxylic acid (pyridin-2-ylmethyl)-amide]	> 20 µM	< 1 µM
COc1cccc(-c2cn(C3CCN(Cc4cccc(OCC(C)C)c4)C3)nn2)n1 (stereo not shown) [Compound 62, 2-{1-[1-(3-Isobutoxy-benzyl)-pyrrolidin-3-yl]-1H-[1,2,3]triazol-4-yl}-6-methoxy-pyridine]	> 20 µM	1 to 5 µM
Cc1cccnc1-c1nc(C2CCN(Cc3cccc(OCC(C)C)c3)C2)no1 (stereo not shown) [Compound 51, 2-{3-[1-(3-Isobutoxy-benzyl)-pyrrolidin-3-yl]-[1,2,4]oxadiazol-5-yl}-3-methyl-pyridine]	> 20 µM	1 to 5 µM
O=C(NCc1ccccn1)C1(O)CCN(Cc2cccc(Oc3ccccc3)c2)C1=O (stereo not shown) [Compound 94, 3-Hydroxy-2-oxo-1-(3-phenoxy-benzyl)-pyrrolidine-3-carboxylic acid (pyridin-2-ylmethyl)-amide]	> 20 µM	1 to 5 µM

Structure (SMILES)	IC50 (read-out: Nav1.6 Tonic)	IC50 (read-out: Nav1.6 inac)
O=C(C1CN(Cc2cccc(Oc3ccccc3)c2)CCO1)N1CCOCC1 (stereo not shown) [Compound 106, Morpholin-4-yl-[4-(3-phenoxy-benzyl)-morpholin-2-yl]-methanone]	> 20 µM	> 5 µM
COc1ccc(CNC(=O)C2CCN(Cc3cccc(Oc4ccccc4)c3)C2)cc1 (stereo not shown) [Compound 66, 1-(3-Phenoxy-benzyl)-pyrrolidine-3-carboxylic acid 4-methoxy-benzylamide]	10 to 20 µM	< 1 µM
CC(C)C[S+]([O-])c1cccc(CN2CCC(C(=O)NCc3ccccn3)C2)c1 (stereo not shown) [Compound 42, 1-[3-(2-Methyl-propane-1-sulfinyl)-benzyl]-pyrrolidine-3-carboxylic acid (pyridin-2-ylmethyl)-amide]	> 20 µM	> 5 µM
O=C(NCc1ccccn1)C1CCN(Cc2cccc(Oc3ccccn3)c2)C1 (stereo not shown) [Compound 4, 1-[3-(Pyridin-2-yloxy)-benzyl]-pyrrolidine-3-carboxylic acid (pyridin-2-ylmethyl)-amide]	10 to 20 µM	< 1 µM
O=C(NCc1ccccn1)C1CCN(Cc2cccc(Oc3cccc(F)c3)c2)C1 (stereo not shown) [Compound 11, 1-[3-(3-Fluoro-phenoxy)-benzyl]-pyrrolidine-3-carboxylic acid (pyridin-2-ylmethyl)-amide]	10 to 20 µM	< 1 µM
Cc1cc(C)nc(CNC(=O)C2CCN(Cc3cccc(S(=O)(=O)N4CCCC4)c3)C2)c1 (stereo not shown) [Compound 111, 1-[3-(Pyrrolidine-1-sulfonyl)-benzyl]-pyrrolidine-3-carboxylic acid (4,6-dimethyl-pyridin-2-ylmethyl)-amide hydrochloride]	> 20 µM	1 to 5 µM
C[C@]1(C(=O)NCc2ccccn2)CCN(Cc2cccc(Oc3ccccc3)c2)C1 [Compound 38, (S)-3-methyl-1-(3-phenoxybenzyl)-N-(pyridin-2-ylmethyl)pyrrolidine-3-carboxamide]	> 20 µM	> 5 µM
COCCNC(=O)C1CN(Cc2cccc(Oc3ccccc3)c2)CCO1 (stereo not shown) [Compound 107, 4-(3-Phenoxy-benzyl)-morpholine-2-carboxylic acid (2-methoxy-ethyl)-amide]	> 20 µM	1 to 5 µM
COc1cccnc1-c1nc(C2CCN(Cc3cccc(OCC(C)C)c3)C2)no1 (stereo not shown) [Compound 49, 2-{3-[1-(3-Isobutoxy-benzyl)-pyrrolidin-3-yl]-[1,2,4]oxadiazol-5-yl}-3-methoxy-pyridine]	> 20 µM	1 to 5 µM
O=C(NCc1ccccn1)C1(F)CCN(Cc2cccc(Oc3cccc(C(F)(F)F)c3)c2)C1 (stereo not shown) [Compound 25, 3-Fluoro-1-[3-(3-trifluoromethyl-phenoxy)-benzyl]-pyrrolidine-3-carboxylic acid (pyridin-2-ylmethyl)-amide]	> 20 µM	1 to 5 µM
CC(C)COc1cccc(CN2CCC(COCc3ccccn3)C2)c1 (stereo not shown) [Compound 35, 2-[1-(3-Isobutoxy-benzyl)-pyrrolidin-3-ylmethoxymethyl]-pyridine]	> 20 µM	1 to 5 µM
CC(C)COc1cccc(CN2CCC(n3cc(-c4ccccn4)nn3)C2)c1 (stereo not shown) [Compound 60, 2-{1-[1-(3-Isobutoxy-benzyl)-pyrrolidin-3-yl]-1H-[1,2,3]triazol-4-yl}-pyridine]	> 20 µM	1 to 5 µM
CC(C)COc1cccc(CN2CCC(c3noc(-c4ncccc4F)n3)C2)c1 (stereo not shown) [Compound 50, 3-Fluoro-2-{3-[1-(3-isobutoxy-benzyl)-pyrrolidin-3-yl]-[1,2,4]oxadiazol-5-yl}-pyridine]	> 20 µM	> 5 µM
CC1(C(=O)N2Cc3ccncc3C2)CCN(Cc2cccc(Oc3ccccc3)c2)C1 (stereo not shown) [Compound 108, (1,3-Dihydro-pyrrolo[3,4-c]pyridin-2-yl)-[3-methyl-1-(3-phenoxy-benzyl)-pyrrolidin-3-yl]-methanone]	> 20 µM	1 to 5 µM
COc1ccc(Oc2cccc(CN3CCC(C(=O)NCc4ccccn4)C3)n2)cc1 (stereo not shown) [Compound 19, 1-[6-(4-Methoxy-phenoxy)-pyridin-2-ylmethyl]-pyrrolidine-3-carboxylic acid (pyridin-2-ylmethyl)-amide]	> 20 µM	1 to 5 µM
Cc1cc(C)cc(Oc2cccc(CN3CCC(C(=O)NCc4ccccn4)C3)c2)c1 (stereo not drawn) [Compound 9, l-[3-(3,5-Dimethyl-phenoxy)-benzyl]-pyrrolidine-3-carboxylic acid (pyridin-2-ylmethyl)-amide]	> 20 µM	< 1 µM
